Measured values reported in patent US20210060118A1, “THERAPEUTIC HOMODIMER AND USES THEREOF” (priority 2014, published 2021).
Values joined by “and” are separate entries in the source; they are usually repeats but may differ in a detail not shown here. Equal entries are not always repeated. “Also recorded” adds a separate entry of the source. Where two headings read alike, the source gives them in different places. Bridge positions count the residues as written; N and C are the ends. Peptide text beside a SMILES is read from it. I, II: the chains in the order shown.

Key:
[1] = test system: human buccal tissue model
[2] = test system: human diabetic patients; experiment: Therapeutic efficacy testing in human diabetic patients (HbA1c); format: in vivo; conditions: for HbA1c % Change: day 35 vs baseline; for HbA1c % Baseline (Mean ± sd.): before first dose
Method: Homodimer C was tested in human clinical trials to determine therapeutic efficacy of transmucosal delivery. Both intraoral (sublingual) delivery and peroral delivery were tested. Two further groups of patients were administered an injectable preparation of Homodimer C to allow a comparison of the effects of transmucosal delivery to the effects of injection delivery.
Diabetic patients treated with oral anti-diabetic drugs (e.g. sulfonylurea type drugs) or insulin were recruited and randomised to four patient groups: two injectable peptide groups (Groups 1 and 2) and to two oral peptide dosage groups, for delivery of Homodimer C either by sublingual administration (Group 3) or via enteric coated capsules (Group 4).
Each group was administered five doses of Homodimer C. Homodimer C was administered once weekly (at days 0, 7, 14, 21 and 28 of the study) at a dose of 2 mg (which equates to approximately 0.03 mg/kg for a notional 70 kg subject) for all four groups. The homodimer injections were intramuscular, generally into the upper arm of the subjects. The patients' current treatment was not withdrawn during the study. HbA1c levels were determined in advance of the first dose and at day 35 of the study.

[3] = test system: human buccal tissue model; experiment: Human buccal tissue permeability screening (EpiOral tissue model, HPLC of supernatant); conditions: for Transmissibility (%): 30 minutes at 37° C.; for Peak Area by HPLC of Peptides in Solution, Post-overlay: supernatant above cells after 30 minutes at 37° C.
[4] = Table 1, stock homodimer-containing medium before incubation

`CC[C@H](C)[C@H](NC(=O)[C@H](CC(N)=O)NC(=O)[C@@H](N)CSSC[C@H](N)C(=O)N[C@@H](CC(N)=O)C(=O)N[C@H](C(=O)N[C@@H](Cc1ccc(O)cc1)C(=O)N1CCC[C@H]1C(=O)N[C@@H](CO)C(=O)N[C@@H](CC(=O)O)C(=O)N[C@@H](CO)C(=O)N[C@@H](Cc1ccc(O)cc1)C(=O)N[C@H](C(=O)N[C@@H](CC(N)=O)C(=O)N[C@@H](Cc1ccc(O)cc1)C(=O)N[C@@H](CC(N)=O)C(=O)N[C@@H](CCC(N)=O)C(=O)N[C@@H](CCCCN)C(=O)N[C@@H](Cc1ccccc1)C(=O)N[C@@H](CCCCN)C(=O)N[C@@H](CC(=O)O)C(=O)O)[C@@H](C)O)[C@@H](C)CC)C(=O)N[C@@H](Cc1ccc(O)cc1)C(=O)N1CCC[C@H]1C(=O)N[C@@H](CO)C(=O)N[C@@H](CC(=O)O)C(=O)N[C@@H](CO)C(=O)N[C@@H](Cc1ccc(O)cc1)C(=O)N[C@H](C(=O)N[C@@H](CC(N)=O)C(=O)N[C@@H](Cc1ccc(O)cc1)C(=O)N[C@@H](CC(N)=O)C(=O)N[C@@H](CCC(N)=O)C(=O)N[C@@H](CCCCN)C(=O)N[C@@H](Cc1ccccc1)C(=O)N[C@@H](CCCCN)C(=O)N[C@@H](CC(=O)O)C(=O)O)[C@@H](C)O` [Homodimer A] (I: H-CNIYPSDSYTNYNQKFKD-OH / II: H-CNIYPSDSYTNYNQKFKD-OH; disulfide I:1-II:1; N-terminus and C-terminus assumed) was tested, and the “Peak Area by HPLC of Peptides in Solution, Post-overlay” value (from here on “Peak Area by HPLC … Post-overlay”) [1] was 4439, the “Peak Area by HPLC of Peptides in Solution, Pre-overlay” value (shortened to “Peak Area by HPLC … Pre-overlay”) [1] was 5398 and the “Transmissibility (%)” value [1] was 17.7%. For the same molecule, the “transmissibility (absorption) across the human buccal tissue surface, in words” value (shortened to “transmissibility … in words”) [1] was “only poor transmissibility”.
With `CC(C)C[C@H](NC(=O)[C@@H]1CCCN1C(=O)[C@H](Cc1ccc(O)cc1)NC(=O)[C@H](CO)NC(=O)[C@H](CC(N)=O)NC(=O)[C@H](Cc1ccc(O)cc1)NC(=O)[C@H](CCC(N)=O)NC(=O)[C@H](CCC(N)=O)NC(=O)[C@@H](N)CSSC[C@H](N)C(=O)N[C@@H](CCC(N)=O)C(=O)N[C@@H](CCC(N)=O)C(=O)N[C@@H](Cc1ccc(O)cc1)C(=O)N[C@@H](CC(N)=O)C(=O)N[C@@H](CO)C(=O)N[C@@H](Cc1ccc(O)cc1)C(=O)N1CCC[C@H]1C(=O)N[C@@H](CC(C)C)C(=O)N[C@H](C(=O)O)[C@@H](C)O)C(=O)N[C@H](C(=O)O)[C@@H](C)O` [Homodimer C] (I: H-CQQYNSYPLT-OH / II: H-CQQYNSYPLT-OH; disulfide I:1-II:1; N-terminus assumed) the “efficacy of intraoral (sublingual) or peroral routes compared with parenteral (injection)” value ([2]; 2 mg once weekly x5) was “significantly more effective”, the “HbA1c % Change” value ([2]; Group 1, intramuscular injection 2 mg once weekly x5, insulin only, P = 0.045) was −0.60% and the “HbA1c % Day 35 (Mean ± sd.)” value ([2]; Group 1, intramuscular injection 2 mg once weekly x5, previous treatment insulin only, n = 17) was 10.74 ± 2.0%. For the same molecule, the “HbA1c % Baseline (Mean ± sd.)” value ([2]; Group 1, intramuscular injection, previous treatment insulin only, n = 17) was 11.34 ± 2.6%, the “HbA1c % Day 35 (Mean ± sd.)” value ([2]; Group 2, intramuscular injection 2 mg once weekly x5, oral anti-diabetics and/or insulin, n = 18) was 9.57 ± 1.79% and the “HbA1c % Change” value ([2]; Group 2, intramuscular injection 2 mg once weekly x5, P = 0.033) was −0.75%. The “HbA1c % Baseline (Mean ± sd.)” value ([2]; Group 2, intramuscular injection, previous oral anti-diabetics and/or insulin, n = 18) was 10.32 ± 2.24%, the “HbA1c % Day 35 (Mean ± sd.)” value ([2]; Group 3, sublingual 2 mg once weekly x5, n = 7) was 7.85 ± 2.03% and the “HbA1c % Change” value ([2]; Group 3, sublingual 2 mg once weekly x5, P = 0.005) was −1.33%. The “HbA1c % Baseline (Mean ± sd.)” value ([2]; Group 3, sublingual, previous oral anti-diabetics and/or insulin, n = 7) was 9.18 ± 2.64%, the “HbA1c % Day 35 (Mean ± sd.)” value ([2]; Group 4, enteric coated capsule (peroral) 2 mg once weekly x5, n = 7) was 8.12 ± 1.04% and the “HbA1c % Change” value ([2]; Group 4, enteric coated capsule (peroral) 2 mg once weekly x5, P = 0.016) was −1.18%. The “HbA1c % Baseline (Mean ± sd.)” value ([2]; Group 4, enteric coated capsule (peroral), previous oral anti-diabetics and/or insulin, n = 7) was 9.30 ± 1.65%, the “side-effects in human patients” value ([2]; doses of approximately 2 mg (approximately 0.03 mg/kg)) was “without significant undesirable side-effects” and the “mean HbA1c levels at day 35 relative to mean baseline, in words” value ([2]; each of Groups 1-4) was “significantly reduced”. The “transmissibility … in words” value [3] was “transmitted efficiently; also recorded: efficient uptake”, the “Transmissibility (%)” value ([3]; Table 1) was 94.1% and the “Peak Area by HPLC … Pre-overlay” value [3, 4] was 4142. The “Peak Area by HPLC … Post-overlay” value ([3]; Table 1) was 243, the “Transmissibility (%)” value ([3]; Table 2, triplicate cultures) was 93.3% and 84.5% and 100% and the “Peak Area by HPLC … Pre-overlay” value ([3]; Table 2, triplicate cultures, stock medium before incubation) was 4142.
In the case of `CC(C)C[C@H](NC(=O)CNC(=O)[C@H](CCCNC(=N)N)NC(=O)[C@H](CC(C)C)NC(=O)[C@@H](N)CSSC[C@H](N)C(=O)N[C@@H](CC(C)C)C(=O)N[C@@H](CCCNC(=N)N)C(=O)NCC(=O)N[C@@H](CC(C)C)C(=O)N[C@@H](CC(C)C)C(=O)N1CCC[C@H]1C(=O)N[C@@H](CC(=O)O)C(=O)N[C@@H](Cc1ccc(O)cc1)C(=O)O)C(=O)N[C@@H](CC(C)C)C(=O)N1CCC[C@H]1C(=O)N[C@@H](CC(=O)O)C(=O)N[C@@H](Cc1ccc(O)cc1)C(=O)O` [Homodimer B, reference compound] (I: H-CLRGLLPDY-OH / II: H-CLRGLLPDY-OH; disulfide I:1-II:1; N-terminus and C-terminus assumed), the “transmissibility … in words” value [3] is reported as “did not demonstrate any transmissibility”, the “Transmissibility (%)” value ([3]; Table 1) is reported as 0% and the “Peak Area by HPLC … Pre-overlay” value [3, 4] is reported as 2023. The “Peak Area by HPLC … Post-overlay” value ([3]; Table 1) was 2396.
